SMILES strings stand for the structures.

The test system of the test is MDA-MB-231 cells. As to the kind of experiment: Cell cycle analysis by flow cytometry (PI). The class given is cell-based, human. Particulars: 16 µM (2 × IC50), vs vehicle control; 24 h / 48 h. The protocol: To explore the ability of compound 7 to regulate cell cycle progression, the percentage of cells in different phases was analyzed after 24 h of exposure.
Figure 2 Compound 7 induced cell cycle arrest, apoptosis, and ROS production, in MDA-MB-231 cells. […] (B) Effect of 16 µM of compound 7 on cell cycle progression after 48 h of treatment in MDA-MB-231 cells; the percentage of cells in each phase of the cell cycle was analyzed by flow cytometry, using PI; data are mean ± SEM of three independent experiments. […] (C) Effect of 16 µM of compound 7 on apoptosis after 48 h of treatment; the percentage of Annexin-positive cells was analyzed by flow cytometry using PI and Annexin-V staining; data are mean ± SEM of three independent experiments. […] (F) The graph represents the quantification of protein expression levels relative to DMSO; data are mean ± SD of three independent experiments. The ability of compound 7 to induce apoptosis in this cell line was also assessed by cytometry, using the Annexin V-FITC assay after 48 h of treatment. […]
The analyses were performed basically as described in [33]. […] The cells were then analyzed by flow cytometry, and cell cycle phases were identified and quantified using the FlowJo × 10.0.7 Software (Treestar, Ashland, OR, USA). […]
On the technique in general: In flow cytometry, cells or beads pass a laser one at a time.

As to `COc1cc2c(cc1O)C(=O)OC1[C@@H](O)C=C3CCN(C)C3[C@]21O` (stereo partly drawn) [Compound 7, 2α-10bα-dihydroxy-9-O-demethylhomolycorine], the cell cycle progression entry was “significant accumulation of cells in the G2/M phase”.

The record behind these values is publication PMC9501014, “Amaryllidaceae-Type Alkaloids from Pancratium maritimum: Apoptosis-Inducing Effect and Cell Cycle Arrest on Triple-Negative Breast Cancer Cells” (Molecules, 2022).
